The results in this text go back to patent US20080166753A1, “Microbial Growth Assay” (University Technologies International Inc., priority 2004, published 2008).

“Also recorded” adds a separate entry of the source.

Experiment [1] concerns P. aeruginosa mutant strain TTD2 biofilm. The experiment is described as follows: Biofilm killing assessed by XTT absorbance, mutant strain TTD2. The settings on record: strain TTD2 (contains gentamicin cassette), 48 h biofilm. It is filed as cell-based. Here is the method:
(§1) Biofilm Growth Conditions. Isolates were propagated in Mueller-Hinton broth (MHB). Flasks containing liquid medium (20 ml) were inoculated with a loopful of cells from MHB agar plates containing freshly grown isolates, and incubated overnight in an orbital shaker (100 rpm) at 37° C. Cells were harvested and resuspended in MHB at a cellular density equivalent to 1.0×10^6 cells per milliliter. Biofilms were formed on the pegs of the Calgary Biofilm Device (CBD; MBE™ Biofilm Technologies, Ltd., Edmonton AB), described in Ceri et al. (Ceri et al., J. Clin. Microbiol., 37(6):1771-6, 1999). The device consists of 96 conical pegs attached to a plastic lid. […]
(§2) Optimizing XTT Assay. In order to optimize the quantities of 2,3-bis[2-methyloxy-4-nitro-5-sulfophenyl]-2H-tetrazolium-5-carboxanilide (XTT; Sigma) and menadione required for quantifying biofilm metabolic activity, varying concentrations were tested. […] The concentration of menadione (2-methyl-1,4-naphthoquinone; Sigma), the electron-coupling agent, was varied to establish the optimal molarity in respect to maximal absorbance readings. […] The change in XTT absorbance at 490 nm was assessed spectrophotometerically using an automated microtiter plate reader. It was determined that 75 μM gave the optimal change in absorbance after 2 h (FIG. 7). […]
(§3) Assessment of Biofilm Killing Kinetics Using XTT. […] XTT absorbance readings were taken at 2 h and then at 24 h. […]

Experiment [2] concerns P. aeruginosa mutant strain 4G6 biofilm. The experiment is described as follows: Biofilm killing assessed by XTT absorbance, mutant strain 4G6. It is filed as cell-based. The note with it: strain 4G6 (contains gentamicin cassette), 48 h biofilm. Here is the method: as §1, §2, §3

For the substance gentamicin, the “Susceptibility as assessed by XTT absorbance” value in experiment [1] and in experiment [2] was “less susceptible; also recorded: decreased susceptibility” each time.
